From PubChem BioAssay AID179 (DTP/NCI, 2004)
Activity calls are given as the source filed them.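 The calls were made as follows: active = compounds giving half or more protection of infected cells from virus-caused growth loss, again on retest; inactive = the rest.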

Test system: CEM cells HIV-1 protection, formazan growth assay
Assay: NCI AIDS Antiviral Assay
Conditions: for IC50: measured here: growth of uninfected CEM cells
Procedure, shortened: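 Protection of CEM cells against HIV-1 measured as cell growth via soluble formazan read-out, with five concentrations tested on both infected and uninfected cells; failure to protect may reflect toxicity.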

| SMILES | outcome | EC50 | IC50 |
| --- | --- | --- | --- |
| CC(C1=CC(=O)c2c(O)ccc(O)c2C1=O)C1=CC(=O)c2c(O)ccc(O)c2C1=O | inactive | – | – |
| C[CH2][Sn]([CH2]C)([O]C(=O)C(OC(C)=O)c1ccccc1)[O]C(=O)C(OC(C)=O)c1ccccc1 (stereo not given) | – | > 229 µM | 2.69 µM |
| Nc1c(C(=O)O)c2nc3c(CO)cccc3oc-2cc1=O | – | > 200 µM | 2.14 µM |
| CNC(=S)OCCC(C)CCCC(C)C (stereo not given) | inactive | – | – |
| CN(C)c1ccc2nc3c(C(=O)O)cc(=O)c(O)c-3oc2c1 | – | > 100 µM | 13.8 µM |
| Cn1c(NS(=O)(=O)c2ccccc2)nc2ccccc21 | – | > 200 µM | > 200 µM |
| c1ccc([P+](CC[P+](c2ccccc2)(c2ccccc2)c2ccccc2)(c2ccccc2)c2ccccc2)cc1 | – | > 200 µM | 6.17 µM |
| C=CCCCC[P+](c1ccccc1)(c1ccccc1)c1ccccc1 | – | > 20 µM | 1.45 µM |
| Oc1ccc(S)cc1CNc1ccccc1 | – | > 200 µM | 22.4 µM |
| CC1(c2ccc(Cl)cc2)c2ccccc2C(=O)N1CCCN1C(=O)c2ccccc2C1=O (stereo not given) | – | > 200 µM | 195 µM |
| CC(=O)n1c(COc2ccc3c(C)cc(=O)oc3c2)nc2ccccc2c1=O | – | > 91.2 µM | > 91.2 µM |
| Cc1ccc(N=Nc2ccc(N(CCC#N)CCC#N)cc2C)c(Br)c1 | – | > 3.55 µM | > 3.55 µM |
| O=[N+]([O-])C1(C[Se]c2cccc(C(F)(F)F)c2)CCCCC1 | inactive | – | – |
| C=C1C2CC[C@H]3C45CO[C@@](O)(C(O)[C@@H]4C(C)(C)C=CC5=O)C3(C2)C1OC(C)=O (stereo not given in full) | – | > 339 µM | 23.4 µM |
| O=C(O)C1C2c3ccccc3C(O)C1(C(=O)O)c1ccccc12 (stereo not given) | – | > 407 µM | > 407 µM |
| COc1cccc(CN2CCN(/N=C/c3c4c(O)c5c(O)c(C)c6c(c5c3O)C(=O)C(C)(O/C=C/C(OC)C(C)C(OC(C)=O)C(C)C(O)C(C)C(O)C(C)/C=C/C=C(C)C(=O)N4)O6)CC2)c1 (stereo not given) | – | > 200 µM | 6.61 µM |
| Cn1cnc2nc3ncn(C)c3cc21 | – | > 200 µM | > 200 µM |
| CC(C)c1ccc(/C=C2\CSCC3=C2N=C2SCC(=O)N2C3c2ccc(C(C)C)cc2)cc1 (stereo not given) | – | > 200 µM | 107 µM |
| CCOC(=O)C(C(=O)c1ccccc1-c1ccccc1C(=O)O)=P(c1ccccc1)(c1ccccc1)c1ccccc1 | – | > 229 µM | 43.7 µM |
| Cc1ccc2nc(NC(=O)C(=O)CC(=O)c3cccc4ccccc34)sc2c1 | – | > 33.9 µM | > 33.9 µM |
| CCN(CC)CC(=O)NC1c2ccccc2Oc2c(C)cccc21 (stereo not given) | – | > 288 µM | 145 µM |

| SMILES | outcome | EC50 | IC50 |
| --- | --- | --- | --- |
| CC1=Nc2ccccc2SC(c2c(Cl)cccc2Cl)C1 (stereo not given) | – | > 22.4 µM | 4.57 µM |
| O=C1ON(c2ccccc2)C(c2ccccc2)N1c1ccccc1 (stereo not given) | – | > 200 µM | 61.7 µM |
| CCOC(=O)/C=C1\CCC(C)n2c1nccc2=O (stereo not given) | – | > 200 µM | 110 µM |
| Cc1cc2c(oc(=O)c3cc(C)sc32)s1 | – | > 42.7 µM | > 42.7 µM |
| CC(C)(C)C1=NC(S)NC(CCC(=O)Nc2ccccc2[N+](=O)[O-])=C1 (stereo not given) | – | > 692 µM | > 692 µM |
| O=C1OCc2c1cc1cc3c(cc1c2-c1ccc2c(c1)OCO2)OCO3 | inactive | – | – |
| Cc1ccc(N2CC(=O)N3CCCC(C)N3C(=O)C2)cc1 (stereo not given) | – | > 200 µM | 174 µM |
| C=C1c2nc3ccccc3n2C=C(c2ccccc2)N1c1ccc(OC)cc1 | – | > 200 µM | 12.9 µM |
| COC(=O)c1ccc(-n2c(C)nc(=O)c(-c3ccccc3)c2C)cc1 | – | > 100 µM | > 100 µM |
| COc1ccccc1-n1nnc2c(N)nc(N)nc21 | – | > 200 µM | > 200 µM |
| Cn1cnc([N+](=O)[O-])c1Sc1ncccn1 | – | > 1050 µM | 38 µM |
| O=C(O)CC(NC(=O)/C(=C/c1ccccc1)NC(=O)c1ccccc1)C(=O)O (stereo not given) | – | > 200 µM | > 200 µM |
| CCOC(=O)/C(C#N)=C/c1ccccc1Cl | inactive | – | – |
| CC(C)(C)[Si](C)(C)OCc1cccc(OCCOc2cccc(CO[Si](C)(C)C(C)(C)C)c2[N+](=O)[O-])c1[N+](=O)[O-] | – | > 50.1 µM | > 50.1 µM |
| CC1=NN(C(=O)CC(=O)Nc2cccc(Cl)c2)C(=O)C1N=Nc1ccc(S(=O)(=O)c2ccc(N=NC3C(=O)N(C(=O)CC(=O)Nc4cccc(Cl)c4)N=C3C)cc2)cc1 (stereo not given) | – | > 100 µM | > 100 µM |
| CC1CC(=O)c2c(cc3c(-c4c(O)cc(O)c5c(O)c6c(cc45)OC(C)CC6=O)c(O)cc(O)c3c2O)O1 (stereo not given) | inactive | – | – |
| CCN(CC)CCCNc1ncnc2c1C(c1ccccc1)c1ccccc1-2 (stereo not given) | – | > 676 µM | 33.1 µM |
| O=C(O)CC1OCC=C2CN3CCC45C6=CC(=O)C(=O)C([N+](=O)[O-])=C6NC4C1C2CC35 (stereo not given) | – | > 200 µM | 28.2 µM |
| C=C1CC2CCCC12C=O (stereo not given) | – | > 263 µM | 145 µM |
| O=C1/C(=C\c2ccc(O)cc2)CCC/C1=C/c1ccc(Cl)c(Cl)c1 | – | > 200 µM | 1.12 µM |
| CC1(C)CC2(C)CC1CC2(O)c1ccccc1 (stereo not given) | – | > 219 µM | 61.7 µM |

| SMILES | outcome | EC50 | IC50 |
| --- | --- | --- | --- |
| Cc1ccc2oc(=O)c(C(=O)Nc3nc(C45CC6CC(CC(C6)C4)C5)cs3)cc2c1 | – | > 100 µM | > 100 µM |
| CC1/C(=N/O)CC(c2ccccc2)N(N=O)C1c1ccccc1 (stereo not given) | – | > 200 µM | 129 µM |
| CN(C)N=Nc1ccc2[nH]c(=O)[nH]c2c1 | – | > 200 µM | 102 µM |
| COC(CNC(=O)C(C)NC(=O)/C=C/c1ccccc1)OC (stereo not given) | inactive | – | – |
| N=c1c2c3n(c4c(=O)n(-c5ccccc5)c(=S)n(c(=O)n1-c1ccccc1)c24)CCCCC3 | – | > 100 µM | > 100 µM |
| COC(=O)CC(C(C(=O)OCc1ccccc1)C(C)O)N1C(=O)OC(c2ccccc2)C1c1ccccc1 (stereo not given) | – | > 251 µM | > 251 µM |
| CNc1ncc2nc(C)c(=O)n(C)c2n1 | – | > 200 µM | > 200 µM |
| COC(=O)C1=C(C(=O)OC)N(c2ccc(OC)cc2[N+](=O)[O-])C(c2ccc(C)cc2)=CC1c1ccc(OC)cc1OC (stereo not given) | – | > 100 µM | 3.02 µM |
| c1ccc2c(c1)nc(NC1CCCC1)c1[nH]c(C3CCCC3)nc12 | – | > 200 µM | 25.1 µM |
| CCN(CC)CC1CCCCN1CC(=O)N1c2ccccc2C(=O)Nc2cccnc21 (stereo not given) | – | > 200 µM | 32.4 µM |
| Nc1ccc2cc(S(=O)(=O)O)cc(O)c2c1N=Nc1ccc(NC(=O)Nc2ccc(N=Nc3c(N)ccc4cc(S(=O)(=O)O)cc(O)c34)c(S(=O)(=O)O)c2)cc1S(=O)(=O)O | – | 55 µM | > 200 µM |
| CC(C)(C)N=c1n(C(C)(C)C)oc(=O)n1-c1ccccc1 | – | > 50.1 µM | > 50.1 µM |
| [Cu+2].[Cu+2].[NH-]c1c(N=Nc2ccc(/C=C/c3ccc(N=Nc4cc(S(=O)(=O)[O-])c5cccc(S(=O)(=O)[O-])c5c4[NH-])cc3S(=O)(=O)[O-])c(S(=O)(=O)[O-])c2)cc(S(=O)(=O)[O-])c2cccc(S(=O)(=O)[O-])c12.[Na+] | – | 10.5 µM | 24 µM |
| Cc1[nH]nc2c(N(C)C)ncnc12 | – | > 200 µM | 170 µM |
| CC(=O)CC(=O)Nc1c(C)[c]([Hg][O]C(C)=O)c(C)[c]([Hg][O]C(C)=O)[c]1[Hg][O]C(C)=O | – | > 1.48 µM | > 1.48 µM |
| O=C(Oc1c(Br)cc(Br)cc1C(=O)Oc1ccccc1)C(=O)Oc1c(Br)cc(Br)cc1C(=O)Oc1ccccc1 | – | > 200 µM | 30.9 µM |
| COc1cc2cccc(N)c2cc1OC | – | > 200 µM | > 200 µM |
| CCOC(=O)CC(=O)Nc1cccc2sc3ncccc3c(=O)c12 | – | > 200 µM | 30.2 µM |
| O=C(c1ccc(Cl)cc1)C1OC12C(=O)Nc1c(Cl)cc(Cl)cc12 (stereo not given) | – | > 19.5 µM | > 19.5 µM |
| CCCCCCCCCCCCCCCCCCN1C(=O)c2ccccc2[Se]1=O (stereo not given) | – | > 0.813 µM | > 0.813 µM |
| O=C(O)CCC(NC(=O)c1ccccc1)C(=O)O (stereo not given) | inactive | – | – |

| SMILES | outcome | EC50 | IC50 |
| --- | --- | --- | --- |
| CN(C)CC1(C)Cc2cc(Cl)sc2C1=O (stereo not given) | – | > 200 µM | > 200 µM |
| COC(=O)c1cc(C(=O)OC)c(CC(=O)C(=O)NC2C3CC4CC(C3)CC2C4)nc1CC(=O)C(=O)NC1C2CC3CC(C2)CC1C3 (stereo not given) | – | > 282 µM | > 282 µM |
| CCOC(=O)C(=CNc1ccc(N(C2=NCC(C)S2)c2ccc(F)c(Cl)c2)cc1)C(=O)OCC (stereo not given) | inactive | – | – |
| CCN(CC)CC(C(=O)Nc1c(C)cccc1C)/C(C)=N\NC(=S)NN (stereo not given) | – | > 35.5 µM | > 35.5 µM |
| CCn1c(SCC(=O)NNC(=S)Nc2ccc(C)cc2)nc2ccccc2c1=O | – | > 200 µM | 105 µM |
| CN(C)c1ccc(C2=C([O-])c3cc(-[n+]4ccccc4)ccc3C2=O)cc1 | – | > 200 µM | 178 µM |
| Clc1cccc(N2CCN(CCN3CCc4c([nH]c5ccccc45)C3c3cccnc3)CC2)c1 (stereo not given) | – | > 2.19 µM | > 2.19 µM |
| Cc1cc(Cc2cc(C)cc(S(=O)(=O)O)c2O)c(O)c(S(=O)(=O)O)c1 | – | 209 µM | 646 µM |
| O=[N+]([O-])c1ccc2[nH]c(=S)n(/C=C(/c3ccc(Cl)cc3Cl)S(=O)(=O)Cc3ccc(Cl)cc3Cl)c2c1 | – | > 200 µM | 170 µM |
| O=c1sc2ccccc2c2c1C=CCO2 | – | > 46.8 µM | > 46.8 µM |
| NC1(C(=O)O)CCCC1c1ccccc1 (stereo not given) | – | > 6.61 µM | > 6.61 µM |
| CN(C)CCc1ccc(Cl)cc1Cl | – | > 977 µM | 407 µM |
| CCOS(=O)(=O)c1ccc(-c2c3nc(c(-c4ccc(S(=O)(=O)OCC)cc4)c4ccc([nH]4)c(-c4ccc(S(=O)(=O)OCC)cc4)c4nc(c(-c5ccc(S(=O)(=O)OCC)cc5)c5ccc2[nH]5)C=C4)C=C3)cc1 | – | > 100 µM | > 100 µM |
| O/N=C1\CC2(N3CCOCC3)CCC1(Cc1ccccc1)CC2 | – | > 100 µM | > 100 µM |
| COc1ccc(/C(C)=N/NC(=O)c2ccncc2)cc1OC | – | > 437 µM | > 437 µM |
| Nc1[nH]c(=S)nc2nc3c(c(-c4ccccc4)c12)CCCC3 | – | > 50.1 µM | > 50.1 µM |
| O=C1/C(=C/c2ccc(Cl)cc2)NC(=S)N1CN1CCCCC1 | – | > 200 µM | 28.2 µM |
| C/C(=N\O)[C@H]1CC[C@H]2[C@@H]3CCC4=C/C(=N/O)CC[C@]4(C)[C@H]3C(=O)C[C@]12C | – | > 200 µM | 39.8 µM |
| CC(=O)c1cccc(NCn2nnc3ccccc32)c1 | – | > 200 µM | 95.5 µM |
